Laboratory results: patent US20140100222A1, “Beta2-ADRENOCEPTOR AGONIST FOR THE TREATMENT OF COUGH” (BOEHRINGER INGELHEIM INTERNATIONAL GMBH, priority 2012, published 2014)
Marks after values point to notes of the source that are not given here.

Experiments:
[1] = test system: citric acid induced cough in OVA sensitised guinea pigs; test: Anti-tussive activity: citric acid induced cough in OVA sensitised guinea pigs (whole body plethysmograph); assay type: in vivo, guinea pig; settings: for Number of coughs: 2 h before 15 min citric acid challenge, mean; for Anti-tussive effect (%): summary
Method: Animals—Male albino Dunkin-Hartley guinea pigs (350-550 g; Charles River WIGA GmbH, Sulzfeld, Germany) were used. The animals were housed in groups of 6 in solid floor cages and allowed free access to water and standard food. The guinea pigs were kept in rooms maintained at a constant temperature (22° C.±2° C.) and humidity (60%±15%), with a 12 h light cycle. The experiments were approved by the ethical committee Regierungspräsidium Tübingen, Germany.
OVA asthma model—On days 1 and 2, the guinea pigs were immunised by subcutaneous injection of 0.5 ml per animal of a solution of ovalbumin (OVA) (40 μg/ml) and aluminium hydroxide [Al (OH)3]. On day 14, these sensitised guinea pigs were challenged with OVA by exposure to an OVA aerosol (1.25 mg/ml) for 5 minutes, using a Dräger Inhalette® (Dräger Medical AG & Co. KgaA, Lübeck, Germany). 30 minutes prior to the challenge, pyrilamine maleate (2 mg/kg i.p.) was administered to protect the animals against bronchospasm. On day 15, the citric acid challenge was given to induce cough. 2 hours before the challenge, the test compound or vehicle (saline) was delivered by intratracheal (i.t.) administration (0.5 ml/kg) under anaesthesia with isoflurane (Forene®, Abbott GmbH and CO. KG, Wiesbaden, Germany).
Cough recording—Two hours after i.t. application, the citric acid challenge was performed. A whole body plethysmograph manufactured for guinea pigs (Buxco Research Systems, Wilmington, N.C., USA) was used for the experiments. Conscious animals were individually placed, unrestrained, into a whole body plethysmograph chamber. A solution of citric acid (0.4 M) was nebulised using the Aerosol Delivery System (Buxco) and administered to the animals at a rate of nebulisation of 0.18 ml/min for 15 min. During the challenge, airflow in the chamber was recorded by the Buxco system and analysed for the transient increase in airflow produced by cough, in which rapid inspiration is followed by rapid expiration. The system was able to distinguish coughs from other expiratory responses, and the number of coughs was counted.
Data analysis—Data from the treatment groups were compared with the vehicle group. Data are expressed as mean ±SEM of coughs produced by guinea pigs within each group during a 15 minutes citric acid aerosol exposure. Mean values were statistically analyzed by one-way analysis of variance (ANOVA) followed by the Dunnett's Multiple comparisons Test to evaluate significant differences between groups with p<0.05 being considered significant.

[2] = test system: heart rate; test: Side-effects: increase in heart rate after drug instillation
Method: In the following the heart rate is expressed as a percentage of the pre-value (heart beats per minute) preceding the drug administration. The increase in heart rate expressed in percent corresponds to the difference of heart rate between the vehicle group and the treated group recorded 20 minutes after drug instillation.

[3] = test system: acetylcholine induced bronchoconstriction in guinea pigs; test: Bronchoprotection: acetylcholine induced bronchospasm in anaesthetised guinea pigs (Konzett-Rössler); assay type: in vivo, guinea pig; settings: for Bronchoconstriction (ml overflow): 2 h before acetylcholine 14 μg/kg i.v., mean; for bronchoprotective FED: first dose without side-effect displaying 80 to 100% efficacy
Method: Animal-Male and female Dunkin-Harley guinea pigs were obtained from the Experimental Animal Breeding Centre of Harlan Winkelmann (Germany). After fasting overnight, but with free access to drinking water, animals with body weight of 400-500 g are used. Anesthesia and preparation-The anesthesia was induced by intraperitoneal injection of 50 mg/kg pentobarbital. Anesthesia was prolonged by intravenous infusion of pentobarbital (15 mg/kg/h) via the jugular vein. A tracheal cannula was introduced after tracheotomy for artificial ventilation. The internal jugular vein was cannulated for acetylcholine injection. Instrumentation-Bronchospasm was recorded with a modified version of the method of Konzett-Röβler described by […] et al, 1997. […] Lung resistance was measured as ml of overflow and was recorded, amplified and saved under Notocord files (Notocord-hem, Notocord, France). Blood pressure and heart rate were monitored from a carotid artery in order to check the anesthesia and the variability of the preparation. Experimental protocol-2 hours before acetylcholine challenge, guinea pigs were given the test compound or its vehicle intra-tracheally under a slight isoflurane anesthesia. 30 minutes before acetylcholine challenge, lung resistance and blood pressure were measured under anesthesia. […] Data analysis-Data from the treatment groups were compared with the vehicle group. Data are expressed as mean ±SD of ml of overflow. […] Mean values were statistically analyzed by one-way analysis of variance (ANOVA) followed by the Dunnett's Multiple comparisons Test to evaluate significant differences between groups with p<0.05 being considered significant.

[4] = test system: cough reflex; settings: inhaled therapy in asthma, COPD or IPF; therapeutic doses; cited from earlier work
[5] = 1 μg/kg i.t., inhibition of acetylcholine bronchoconstriction
[6] = Dunkin-Hartley, guinea pig, in vivo, 20 min

## COc1ccc2c3c1O[C@H]1[C@@H](O)C=C[C@H]4[C@@H](C2)N(C)CC[C@@]341 [Codeine]
[1]; 1 mg/kg i.t.
  Inhibition of cough (%) vs vehicle: 17%
  Number of coughs: 20
[1]; 3 mg/kg i.t.
  Inhibition of cough (%) vs vehicle: 42 * %
  Number of coughs: 14
[1]; 10 mg/kg i.t.
  Inhibition of cough (%) vs vehicle: 58 * %
  Number of coughs: 10
[1]; 30 mg/kg i.t.
  Inhibition of cough (%) vs vehicle: 71 * %
  Number of coughs: 7

## COc1ccc(CC(C)NCC(O)c2ccc(O)c(NC=O)c2)cc1 (stereo not drawn) [Formoterol]
[1]; 1 μg/kg i.t.
  Inhibition of cough (%) vs vehicle: 0%
  Number of coughs: 26
[1]; 3 μg/kg i.t.
  Inhibition of cough (%) vs vehicle: 71 * %
  Number of coughs: 7
[1]; 10 μg/kg i.t.
  Inhibition of cough (%) vs vehicle: 58 * %
  Number of coughs: 10
[1]; 3 μg/kg
  Anti-tussive effect (%): 71%
[1]; 10 μg/kg
  Anti-tussive effect (%): 58%
[2]; 10 μg/kg, 20 min after administration
  increase in heart rate: 21%
[2]; first dose increasing heart rate at least 10% vs vehicle, 20 min after administration
  Dose inducing side-effect (increase in heart rate): 10 µg/kg

## CCc1cc2c(cc1CC)CC(NC[C@H](O)c1ccc(O)c3[nH]c(=O)ccc13)C2 [Indacaterol]
[3]; 1 μg/kg i.t.
  Bronchoconstriction (ml overflow): 34 mL
[3]; [5]
  Bronchoprotection (%): 8%
[3]; 3 μg/kg i.t.
  Bronchoconstriction (ml overflow): 18 mL
[3]; 3 μg/kg i.t., inhibition of acetylcholine bronchoconstriction
  Bronchoprotection (%): 51 * %
[3]; 10 μg/kg i.t.
  Bronchoconstriction (ml overflow): 6 mL
[3]; 10 μg/kg i.t., inhibition of acetylcholine bronchoconstriction
  Bronchoprotection (%): 84 * %
[3]; 30 μg/kg i.t.
  Bronchoconstriction (ml overflow): 5 mL
[3]; 30 μg/kg i.t., inhibition of acetylcholine bronchoconstriction
  Bronchoprotection (%): 86 * %
[3]; Cavia porcellus, inhaled or nasal, i.t.
  ED50: 3 µg/kg
[3]
  bronchoprotective FED: 10 µg/kg
[3]; summary, 1 μg/kg
  Bronchoprotection (%): 8%
[3]; summary, 3 μg/kg
  Bronchoprotection (%): 51%
[3]; summary, 10 μg/kg
  Bronchoprotection (%): 84%
[3]; summary, 30 μg/kg
  Bronchoprotection (%): 86%
[1]; 3 μg/kg i.t.
  Inhibition of cough (%) vs vehicle: 0%
  Number of coughs: 26
[1]; 10 μg/kg i.t.
  Inhibition of cough (%) vs vehicle: 0%
  Number of coughs: 32
[1]; 30 μg/kg i.t.
  Inhibition of cough (%) vs vehicle: 0%
  Number of coughs: 38
[1]; 3 μg/kg
  Anti-tussive effect (%): 0%
[1]; 10 μg/kg
  Anti-tussive effect (%): 0%
[1]; 30 μg/kg
  Anti-tussive effect (%): 0%
[2]; [6]
  Dose inducing side-effect (increase in heart rate): 100 µg/kg
[2]; guinea pig, in vivo, 20 min
  ratio dose inducing side-effect/bronchoprotective FED: 10
  safety margin, times less than for Olodaterol: 10

## COc1ccc(CC(C)(C)NC[C@H](O)c2cc(O)cc3c2OCC(=O)N3)cc1 [Olodaterol]
[3]; 0.01 μg/kg i.t.
  Bronchoconstriction (ml overflow): 25 mL
[3]; 0.01 μg/kg i.t., inhibition of acetylcholine bronchoconstriction
  Bronchoprotection (%): 32%
[3]; 0.03 μg/kg i.t.
  Bronchoconstriction (ml overflow): 14 mL
[3]; 0.03 μg/kg i.t., inhibition of acetylcholine bronchoconstriction
  Bronchoprotection (%): 62 * %
[3]; 0.1 μg/kg i.t.
  Bronchoconstriction (ml overflow): 8 mL
[3]; 0.1 μg/kg i.t., inhibition of acetylcholine bronchoconstriction
  Bronchoprotection (%): 78 * %
[3]; 0.3 μg/kg i.t.
  Bronchoconstriction (ml overflow): 4 mL
[3]; 0.3 μg/kg i.t., inhibition of acetylcholine bronchoconstriction
  Bronchoprotection (%): 89 * %
[3]; 1 μg/kg i.t.
  Bronchoconstriction (ml overflow): 2 mL
[3]; [5]
  Bronchoprotection (%): 95 * %
[3]
  bronchoprotective FED: 0.3 µg/kg
[3]; i.t.
  minimum effective dose for bronchoprotection: 0.01 µg/kg
[3]; summary, 0.01 μg/kg
  Bronchoprotection (%): 32%
[3]; summary, 0.03 μg/kg
  Bronchoprotection (%): 62%
[3]; summary, 0.1 μg/kg
  Bronchoprotection (%): 78%
[3]; summary, 0.3 μg/kg
  Bronchoprotection (%): 89%
[3]; summary, 1 μg/kg
  Bronchoprotection (%): 95%
[1]; 0.01 μg/kg i.t.
  Inhibition of cough (%) vs vehicle: 33%
  Number of coughs: 16
[1]; 0.03 μg/kg i.t.
  Inhibition of cough (%) vs vehicle: 58 * %
  Number of coughs: 10
[1]; 0.1 μg/kg i.t.
  Inhibition of cough (%) vs vehicle: 79 * %
  Number of coughs: 5
[1]; 0.3 μg/kg i.t.
  Inhibition of cough (%) vs vehicle: 79 * %
  Number of coughs: 5
[1]; 1 μg/kg i.t.
  Inhibition of cough (%) vs vehicle: 75 * %
  Number of coughs: 6
[1]; 3 μg/kg i.t.
  Inhibition of cough (%) vs vehicle: 79 * %
  Number of coughs: 5
[1]; first dose without side-effect displaying 70 to 80% efficacy
  antitussive Fully Effective Dose (FED): 0.1 µg/kg
[1]; 0.01 μg/kg
  Anti-tussive effect (%): 33%
[1]; 0.03 μg/kg
  Anti-tussive effect (%): 58%
[1]; 0.1 μg/kg
  Anti-tussive effect (%): 79%
[1]; 0.3 μg/kg
  Anti-tussive effect (%): 79%
[1]; 1 μg/kg
  Anti-tussive effect (%): 75%
[2]; [6]
  Dose inducing side-effect (increase in heart rate): 30 µg/kg
  ratio dose inducing side-effect/antitussive FED: 300
  ratio dose inducing side-effect/bronchoprotective FED: 100
[2]; in vivo
  addiction or arrhythmia: no addiction or arrhythmia

## OCc1cc(C(O)CNCCCCCCOCCCCc2ccccc2)ccc1O (stereo not drawn) [Salmeterol]
[4]
  effect on cough reflex: display anti-tussive effect
